# Results taken from PubChem BioAssay (NCI).
#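 All cell lines were grown in 96-well plates and treated with compound for 48 hours. Abbreviation: GI50, concentration required for 50% inhibition of growth. TGI: total growth inhibition.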
# What was measured:
# Experiment in all cases: NCI anticancer screen, dose series, 48 h
# MALME-3M melanoma = test system: MALME-3M melanoma
# HS 578T breast = test system: HS 578T breast
# SNB-19 CNS = test system: SNB-19 CNS
# SK-OV-3 ovarian = test system: SK-OV-3 ovarian
# SF-295 CNS = test system: SF-295 CNS
# COLO 205 colon = test system: COLO 205 colon
# MOLT-4 leukemia = test system: MOLT-4 leukemia
# CAKI-1 renal = test system: CAKI-1 renal
# HCT-15 colon = test system: HCT-15 colon
# HT29 colon = test system: HT29 colon
# MDA-N = test system: MDA-N
Structure (SMILES),TGI (MALME-3M melanoma) [µM],TGI (HS 578T breast) [µM],TGI (SNB-19 CNS) [µM],TGI (SK-OV-3 ovarian) [µM],TGI (SF-295 CNS) [µM],TGI (COLO 205 colon) [µM],TGI (MOLT-4 leukemia) [µM],TGI (CAKI-1 renal) [µM],GI50 (HCT-15 colon) [µM],TGI (HCT-15 colon) [µM],GI50 (HS 578T breast) [µM],GI50 (SK-OV-3 ovarian) [µM],TGI (HT29 colon) [µM],GI50 (SF-295 CNS) [µM],GI50 (COLO 205 colon) [µM],GI50 (MOLT-4 leukemia) [µM],GI50 (CAKI-1 renal) [µM],TGI (MDA-N) [µM]
C=C1C2C[C@@H]3O[C@H]4C[C@H]5O[C@@]6(C[C@@H]7O[C@]8(C[C@H](C)[C@@H]9O[C@@H]%10CC(CO)O[C@@H]%10C[C@@H]9O8)C[C@H](C)[C@@H]7O6)C[C@H]5O[C@H]4[C@H](C)[C@H]3OC(=O)C[C@H]3CC[C@@H]4OC5[C@H]6O[C@]7(CC[C@H]8CC(=C)[C@H](CC[C@@H](C[C@H]1C)O2)O8)CC6O[C@@H]5[C@@H](O7)[C@H]4O3 (stereo partly drawn),> 1,< 0.0001,> 1,> 1,> 1,0.000322,> 1,> 1,–,–,–,–,–,–,–,–,–,–
COc1cc2c(cc1OCCCC(=O)Nc1ccc3ccc4cccc5ccc1c3c45)N=C[C@@H]1CCCN1C2=O,–,0.064,–,46.9,1.08,4.77,0.355,1.63,0.169,> 100,< 0.0167,10.3,> 83.6,0.217,2.03,0.0987,0.434,–
COc1ccc(/C=C2\CCC(C)C3=C2N=c2s/c(=C/c4cccc(Br)c4)c(=O)n2C3c2ccc(OC)c(OC)c2)cc1OC (stereo not drawn),–,> 100,> 100,> 100,–,–,> 100,> 100,–,> 100,–,–,> 100,–,–,–,–,> 100
Cc1ccc2c(c1)-c1nc(N)c(C#N)c(-c3ccccc3)c1CCS2(=O)=O,87.3,68.1,67.7,–,–,> 100,–,> 100,–,> 100,–,–,> 100,–,–,–,–,> 100
C=C(C)[C@@H]1CCC2=C[C@H](OC2=O)[C@@]2(C)C[C@@H]2C2=CC(C)=C(O2)[C@H]1O,> 75,–,> 75,> 75,> 75,> 75,> 75,> 75,–,> 75,–,–,> 75,–,–,–,–,> 75
O=C1c2ccc(O)c(O)c2C(=O)c2c(O)ccc(O)c21,–,–,85.3,72.8,78.5,48.5,62.2,–,–,89.1,–,–,> 100,–,–,–,–,–
C[C@@H]1CC[C@@H]2[C@@H](C1)O[C@@H]([C@H](C)OCc1ccccc1)SC2(C)C,53.1,–,36.8,> 100,34.5,34,34.9,> 100,–,82.7,–,–,> 100,–,–,–,–,65.5
COc1ccc2nc(-c3ccc(O)cc3)sc2c1,51.6,–,> 100,91.2,42.6,44.6,78.3,57.5,–,36.5,–,–,37.2,–,–,–,–,50.8
O=C(Nc1nc(C23CC4CC(CC(C4)C2)C3)cs1)c1cc2ccccc2oc1=O,> 100,> 100,> 100,–,> 100,> 100,> 100,> 100,–,> 100,–,–,> 100,–,–,–,–,> 100
Cc1nc2c(=O)n(C)ncc2[nH]1,–,> 100,> 100,–,> 100,> 100,> 100,> 100,–,> 100,–,–,> 100,–,–,–,–,> 100
COI1NC(=O)c2ccccc21,> 100,> 100,> 100,> 100,> 100,> 100,> 100,–,–,> 100,–,–,> 100,–,–,–,–,> 100
CCCC(=O)OC1C(CO)OC(n2cc(F)c(=O)[nH]c2=O)C1F (stereo not drawn),> 100,> 100,–,> 100,> 100,> 100,> 100,> 100,–,> 100,–,–,> 100,–,–,–,–,–
Cc1cn(CC2=NCC(C)N2)c(=O)[nH]c1=O (stereo not drawn),> 100,> 100,> 100,> 100,> 100,> 100,> 100,–,–,> 100,–,–,> 100,–,–,–,–,> 100
O=C1c2ccccc2C(=O)N1CC(O)COc1cccc2ccccc12 (stereo not drawn),> 100,–,> 100,> 100,> 100,> 100,> 100,> 100,–,> 100,–,–,> 100,–,–,–,–,> 100
Cc1ccc(S(=O)(=O)N2CCCSCC2)cc1,–,> 100,> 100,> 100,> 100,> 100,> 100,–,–,> 100,–,–,> 100,–,–,–,–,> 100
